Test results taken from patent US20260248780A1, “PHARMACEUTICAL COMPOSITIONS” (Birdie Biopharmaceuticals, Inc., priority 2017, published 2026).
≈ marks a conversion by molar mass, not a printed value.

What was measured:
Format in all cases: physicochemical
[1] = pKa determination on Sirius T3
Method: The mixtures of freebase and acid were stirred at RT for 2.5 days. Clear solutions obtained were slurried at 5° C. overnight to induce precipitation. If the samples were still clear, they would be subjected to evaporation to dryness at RT, in order to maximize the chance of identifying as many crystalline hits as possible. Resulted solids were isolated and analyzed by XRPD.
pKa was determined on Sirius T3 TM according to the manufacturer's instructions and the parameters for pKa test was listed in Table 5-13.

[2] = Hygroscopicity: DVS isotherm at 25° C.; conditions: for hygroscopicity: DVS at 25° C.; for water uptake up to 80% RH: 25° C./80% RH
Method: DVS isotherm plot was collected at 25° C. to investigate the solid form stability as a function of humidity. […] For the possible hydrate/solvate di-HCl salt Type A, solids were equilibrated at ambient humidity (~30% RH) before testing. DVS was measured via a SMS (Surface Measurement Systems) DVS Intrinsic. The relative humidity at 25° C. were calibrated against deliquescence point of LiCl, Mg(NO3)2 and KCl. DVS isotherm plot was collected at 25° C. to investigate the solid form stability as a function of humidity for anhydrate Type A (807919-05-A). Solids were pre-dried at 0% RH to remove the unbounded solvent or water before started. […] DVS was measured via a SMS (Surface Measurement Systems) DVS Intrinsic. The relative humidity at 25° C. were calibrated against deliquescence point of LiCl, Mg(NO3)2 and KCl.

[3] = Kinetic solubility in water and bio-relevant media (SGF, FaSSIF, FeSSIF) at RT; conditions: for FC: Solid form change / S: Solubility / pH: Final pH of supernatant: RT
Method: After being centrifuged and separated using 0.45 μm Nylon filter, filtrates were collected for HPLC and pH test, and wet cakes for XRPD characterization. If clear solutions were obtained after 24 hours, accurate concentration and purity were measured for the solutions.

## CCOCc1nc2c(N)nc3ccccc3c2n1CC(C)(C)O [Freebase Type A, 1-[4-amino-2-(ethoxymethyl)imidazo-[4,5-c]-quinolin-1-yl]-2-methylpropan-2-ol]
[1]
  pKa: 7.2
[2]; listed as Type A
  hygroscopicity: non-hygroscopic
[2]; listed as freebase Type A
  hygroscopicity: non-hygroscopic
[2]; DVS, 25° C., up to 80% RH
  Water Uptake at 25° C./80% RH: 0.1%
[2]; DVS, listed as Type A
  water uptake up to 80% RH: 0.1%
[2]; DVS, listed as freebase Type A
  water uptake up to 80% RH: 0.1%
[2]; XRPD after DVS
  Form Change Post DVS Test: No
[2]; XRPD pre and post DVS, listed as Type A
  Form Change Post DVS Test: no form change
[2]; XRPD pre and post DVS, listed as freebase Type A
  Form Change Post DVS Test: no form change
[3]; FaSSIF
  solubility kinetic: ~2900 µg/mL (≈ 9.22 mM)
[3]; FaSSIF, 1 hr
  FC: Solid form change: No
  S: Solubility: 2700 µg/mL
  pH: Final pH of supernatant: 7.0
[3]; FaSSIF, 2 hrs
  FC: Solid form change: No
  S: Solubility: 2800 µg/mL
  pH: Final pH of supernatant: 7.0
[3]; FaSSIF, 4 hrs
  FC: Solid form change: No
  S: Solubility: 2800 µg/mL
  pH: Final pH of supernatant: 7.1
[3]; FaSSIF, 24 hrs
  FC: Solid form change: No
  S: Solubility: 2900 µg/mL
  pH: Final pH of supernatant: 7.0
[3]; FeSSIF, 24 hrs
  pH: Final pH of supernatant: 5.4
[3]; SGF and FeSSIF, simulated gastric fluid, SGF/FeSSIF
  solubility kinetic: > 4900 µg/mL
[3]; SGF, 1 hr
  S: Solubility: 2700 µg/mL
  pH: Final pH of supernatant: 3.6
[3]; SGF, 2 hrs
  S: Solubility: 3500 µg/mL
  pH: Final pH of supernatant: 5.0
[3]; SGF, 4 hrs
  S: Solubility: 5000 µg/mL
  pH: Final pH of supernatant: 5.0
[3]; SGF, 24 hrs
  S: Solubility: 5000 µg/mL
  pH: Final pH of supernatant: 4.9
[3]; Water, 1 hr
  FC: Solid form change: No
  S: Solubility: 500 µg/mL
  pH: Final pH of supernatant: 8.4
[3]; Water, 2 hrs
  FC: Solid form change: No
  S: Solubility: 500 µg/mL
  pH: Final pH of supernatant: 8.6
[3]; Water, 4 hrs
  FC: Solid form change: No
  S: Solubility: 500 µg/mL
  pH: Final pH of supernatant: 8.1
[3]; Water, 24 hrs
  FC: Solid form change: No
  S: Solubility: 500 µg/mL
  pH: Final pH of supernatant: 8.1
[3]; water
  Kinetic Solubility at RT: ~0.5 (water) mg/mL
